Source: publication PMC5218480 (PLoS ONE, 2017)

Test system: MV-4-11 cells
Test: Gene expression microarray analysis (Affymetrix PrimeView) and GSEA
Type: cell-based, human
Design: RFU PODN (11730768_x_at) / Fold change /veh PODN (11730768_x_at) / RFU LINC00158 (11744669_a_at) / Fold change /veh LINC00158 (11744669_a_at) / RFU DUSP10 (11751237_a_at) / Fold change /veh DUSP10 (11751237_a_at) / RFU ID3 (11757404_x_at) / Fold change /veh ID3 (11757404_x_at) / RFU PLEKHG5 (11737974_s_at) / Fold change /veh PLEKHG5 (11737974_s_at) / RFU LRRC4B (11730491_at) / Fold change /veh LRRC4B (11730491_at) / RFU GIMAP4 (11747438_a_at) / Fold change /veh GIMAP4 (11747438_a_at) / RFU KRT8 (11758183_x_at) / Fold change /veh KRT8 (11758183_x_at) / RFU CNN1 (11734310_a_at) / Fold change /veh CNN1 (11734310_a_at) / RFU VPS37D (11726825_at) / Fold change /veh VPS37D (11726825_at) / RFU C10orf10 (11716522_x_at) / Fold change /veh C10orf10 (11716522_x_at) / RFU KIR2DL2 /// KIR2DL4 /// KIR2DL5A /// KIR2DL5B /// KIR2DS1 /// KIR2DS2 /// KIR2DS3 /// KIR2DS4 /// KIR3DL3 /// KIR3DL3 /// KIR3DS1 (11738374_at) / Fold change /veh KIR2DL2 /// KIR2DL4 /// KIR2DL5A /// KIR2DL5B /// KIR2DS1 /// KIR2DS2 /// KIR2DS3 /// KIR2DS4 /// KIR3DL3 /// KIR3DL3 /// KIR3DS1 (11738374_at) / RFU C1QL1 (11718748_at) / Fold change /veh C1QL1 (11718748_at) / RFU TMPRSS4 (11747572_a_at) / Fold change /veh TMPRSS4 (11747572_a_at) / RFU HAMP (11756126_x_at) / Fold change /veh HAMP (11756126_x_at) / RFU RNFT2 (11725882_a_at) / Fold change /veh RNFT2 (11725882_a_at) / RFU NR4A2 (11747474_a_at) / Fold change /veh NR4A2 (11747474_a_at) / RFU ABCC12 (11746883_a_at) / Fold change /veh ABCC12 (11746883_a_at) / RFU TMEM136 (11760407_x_at) / Fold change /veh TMEM136 (11760407_x_at) / RFU CLDN22 /// WWC2 (11732394_at) / Fold change /veh CLDN22 /// WWC2 (11732394_at) / RFU HLA-DPB1 (11760878_x_at) / Fold change /veh HLA-DPB1 (11760878_x_at) / RFU SPINT1 (11716480_a_at) / Fold change /veh SPINT1 (11716480_a_at) / RFU GAP43 (11754022_s_at) / Fold change /veh GAP43 (11754022_s_at) / RFU A4GNT (11735810_at) / Fold change /veh A4GNT (11735810_at) / RFU PRB3 (11715151_x_at) / Fold change /veh PRB3 (11715151_x_at) / RFU TUBB4B (11761932_at) / Fold change /veh TUBB4B (11761932_at) / RFU CAPN14 (11732068_a_at) / Fold change /veh CAPN14 (11732068_a_at) / RFU TMCC2 (11721928_a_at) / Fold change /veh TMCC2 (11721928_a_at) / RFU IRGQ (11745062_a_at) / Fold change /veh IRGQ (11745062_a_at) / RFU FAM174B (11720279_a_at) / Fold change /veh FAM174B (11720279_a_at) / RFU TMPRSS4 (11748680_a_at) / Fold change /veh TMPRSS4 (11748680_a_at) / RFU FAM212B (11763350_a_at) / Fold change /veh FAM212B (11763350_a_at) / RFU PLEKHG5 (11743358_a_at) / Fold change /veh PLEKHG5 (11743358_a_at) / RFU ZSCAN30 (11745921_a_at) / Fold change /veh ZSCAN30 (11745921_a_at) / RFU CMKLR1 (11741424_a_at) / Fold change /veh CMKLR1 (11741424_a_at) / RFU LOC101060620 /// MAPK8IP1 (11723275_at) / Fold change /veh LOC101060620 /// MAPK8IP1 (11723275_at) / RFU SPTSSB (11747773_x_at) / Fold change /veh SPTSSB (11747773_x_at) / RFU PRSS12 (11739890_at) / Fold change /veh PRSS12 (11739890_at) / RFU BIN1 (11741810_x_at) / Fold change /veh BIN1 (11741810_x_at) / RFU WNT11 (11732464_a_at) / Fold change /veh WNT11 (11732464_a_at) / RFU C10orf10 (11716521_a_at) / Fold change /veh C10orf10 (11716521_a_at) / RFU C5orf56 (11738089_at) / Fold change /veh C5orf56 (11738089_at) / RFU CYB561 (11721691_x_at) / Fold change /veh CYB561 (11721691_x_at) / RFU ANKRD19P (11752326_a_at) / Fold change /veh ANKRD19P (11752326_a_at) / RFU OR2T12 /// OR2T33 /// OR2T8 (11738714_s_at) / Fold change /veh OR2T12 /// OR2T33 /// OR2T8 (11738714_s_at) / RFU VCAN (11748164_a_at) / Fold change /veh VCAN (11748164_a_at) / RFU JSRP1 (11732532_at) / Fold change /veh JSRP1 (11732532_at) / RFU KRTAP10-11 (11738290_x_at) / Fold change /veh KRTAP10-11 (11738290_x_at) / RFU MYO3A (11730013_a_at) / Fold change /veh MYO3A (11730013_a_at) / RFU EBF3 (11725865_a_at) / Fold change /veh EBF3 (11725865_a_at) / RFU CAMK2N1 (11719241_x_at) / Fold change /veh CAMK2N1 (11719241_x_at) / RFU C5orf56 (11738088_a_at) / Fold change /veh C5orf56 (11738088_a_at) / RFU OLFML3 (11715873_a_at) / Fold change /veh OLFML3 (11715873_a_at) / RFU LOC100653217 /// NTM (11731650_a_at) / Fold change /veh LOC100653217 /// NTM (11731650_a_at) / RFU MAPK11 (11762145_a_at) / Fold change /veh MAPK11 (11762145_a_at) / RFU FIZ1 (11724087_x_at) / Fold change /veh FIZ1 (11724087_x_at) / RFU OASL (11726364_x_at) / Fold change /veh OASL (11726364_x_at) / RFU SOX15 (11748057_x_at) / Fold change /veh SOX15 (11748057_x_at) / RFU CD79A (11719716_a_at) / Fold change /veh CD79A (11719716_a_at) / RFU HIST1H1D (11736915_at) / Fold change /veh HIST1H1D (11736915_at) / RFU CASKIN2 (11723855_a_at) / Fold change /veh CASKIN2 (11723855_a_at) / RFU LOC730098 (11760151_x_at) / Fold change /veh LOC730098 (11760151_x_at) / RFU OR4N2 (11742367_at) / Fold change /veh OR4N2 (11742367_at) / RFU PRRT2 (11749266_a_at) / Fold change /veh PRRT2 (11749266_a_at) / RFU SNX32 (11753110_a_at) / Fold change /veh SNX32 (11753110_a_at) / RFU CDHR5 (11726645_a_at) / Fold change /veh CDHR5 (11726645_a_at) / RFU RCAN1 (11760418_a_at) / Fold change /veh RCAN1 (11760418_a_at) / RFU FAM167A (11723789_a_at) / Fold change /veh FAM167A (11723789_a_at) / RFU FAM26E (11764081_at) / Fold change /veh FAM26E (11764081_at) / RFU ISYNA1 (11749810_s_at) / Fold change /veh ISYNA1 (11749810_s_at) / RFU ACY1 (11761880_at) / Fold change /veh ACY1 (11761880_at) / RFU 11764098_at / Fold change /veh 11764098_at / RFU SAMD14 (11745864_x_at) / Fold change /veh SAMD14 (11745864_x_at) / RFU NPB (11741838_a_at) / Fold change /veh NPB (11741838_a_at) / RFU TMPRSS6 (11731388_a_at) / Fold change /veh TMPRSS6 (11731388_a_at) / RFU KRTAP10-2 (11738614_at) / Fold change /veh KRTAP10-2 (11738614_at) / RFU ARHGAP8 /// PRR5-ARHGAP8 (11727945_x_at) / Fold change /veh ARHGAP8 /// PRR5-ARHGAP8 (11727945_x_at) / RFU KRTAP5-7 /// NADSYN1 (11734609_at) / Fold change /veh KRTAP5-7 /// NADSYN1 (11734609_at) / RFU RASL12 (11751679_a_at) / Fold change /veh RASL12 (11751679_a_at) / RFU CDKN2B (11736163_a_at) / Fold change /veh CDKN2B (11736163_a_at) / RFU PRF1 (11729649_at) / Fold change /veh PRF1 (11729649_at) / RFU, ZNF638 /// ZNF638-IT1 / Fold change vs veh, ZNF638 /// ZNF638-IT1 / RFU, PANK3 / Fold change vs veh, PANK3 / RFU, SH3YL1 / Fold change vs veh, SH3YL1 / RFU, ZEB2 / Fold change vs veh, ZEB2 / RFU, NRIP1 / Fold change vs veh, NRIP1 / RFU, PTTG1IP / Fold change vs veh, PTTG1IP / RFU, CAPN2 / Fold change vs veh, CAPN2 / RFU, MED14 / Fold change vs veh, MED14 / RFU, SNORA58 / Fold change vs veh, SNORA58 / RFU, C1orf63 / Fold change vs veh, C1orf63 / RFU, LRRFIP1 / Fold change vs veh, LRRFIP1 / RFU, NDUFAF7 / Fold change vs veh, NDUFAF7 / RFU, SLC12A2 / Fold change vs veh, SLC12A2 / RFU, IBTK / Fold change vs veh, IBTK / RFU, ESF1 / Fold change vs veh, ESF1 / Fold change vs veh, TMEM50B / RFU, TAOK1 / Fold change vs veh, TAOK1 / RFU, ACBD3 / Fold change vs veh, ACBD3 / RFU, TMA16 / Fold change vs veh, TMA16 / RFU, RWDD3 / Fold change vs veh, RWDD3 / RFU, BCAT1 / Fold change vs veh, BCAT1 / RFU, EDEM3 / Fold change vs veh, EDEM3 / RFU, TMEM33 / Fold change vs veh, TMEM33 / RFU, WDR75 / Fold change vs veh, WDR75 / RFU, AHCTF1 / Fold change vs veh, AHCTF1 / RFU, TFRC / Fold change vs veh, TFRC / RFU, ZDHHC17 / Fold change vs veh, ZDHHC17 / RFU, NOM1 / Fold change vs veh, NOM1 / RFU, ARL8B / Fold change vs veh, ARL8B / RFU, ZBTB11 / Fold change vs veh, ZBTB11 / RFU, TAMM41 / Fold change vs veh, TAMM41 / RFU, KIAA1704 /// LOC100996395 / Fold change vs veh, KIAA1704 /// LOC100996395 / RFU, ING1 / Fold change vs veh, ING1 / RFU, TRMT61B / Fold change vs veh, TRMT61B / RFU, FUBP3 / Fold change vs veh, FUBP3 / RFU, TP53 / Fold change vs veh, TP53 / RFU, TNKS2 / Fold change vs veh, TNKS2 / RFU, ZFP14 / Fold change vs veh, ZFP14 / RFU, ACTR2 / Fold change vs veh, ACTR2 / RFU, PPP3R1 / Fold change vs veh, PPP3R1 / RFU, PIK3R1 / Fold change vs veh, PIK3R1 / RFU, HNRNPA1 / Fold change vs veh, HNRNPA1 / RFU, RNF170 / Fold change vs veh, RNF170 / RFU, ZNF28 / Fold change vs veh, ZNF28 / RFU, RNGTT / Fold change vs veh, RNGTT / RFU, OGT / Fold change vs veh, OGT / RFU, BRD1 / Fold change vs veh, BRD1 / RFU, MARS / Fold change vs veh, MARS / RFU, ZNF655 / Fold change vs veh, ZNF655 / RFU, FAHD1 / Fold change vs veh, FAHD1 / RFU, BDP1 / Fold change vs veh, BDP1 / RFU, LRRCC1 / Fold change vs veh, LRRCC1 / RFU, ARID1A / Fold change vs veh, ARID1A / RFU, ZNF146 / Fold change vs veh, ZNF146 / RFU, ZNF330 / Fold change vs veh, ZNF330 / RFU, GPN3 / Fold change vs veh, GPN3 / RFU, C9orf123 / Fold change vs veh, C9orf123 / RFU, N4BP2L2 / Fold change vs veh, N4BP2L2 / RFU, ARFIP1 / Fold change vs veh, ARFIP1 / RFU, FAM179B / Fold change vs veh, FAM179B / RFU, BCL10 / Fold change vs veh, BCL10 / RFU, UHRF1BP1L / Fold change vs veh, UHRF1BP1L / RFU, BET1 / Fold change vs veh, BET1 / RFU, CNOT2 / Fold change vs veh, CNOT2 / RFU, ZNF268 / Fold change vs veh, ZNF268 / Fold change vs veh, ZNF507 / RFU, DGCR2 / Fold change vs veh, DGCR2 / RFU, WDSUB1 / Fold change vs veh, WDSUB1 / Fold change vs veh, HSP90B1 /// MIR3652 / RFU, ADSS / Fold change vs veh, ADSS / RFU, GK / Fold change vs veh, GK / RFU, ZNF148 / Fold change vs veh, ZNF148 / RFU, TAF9 / Fold change vs veh, TAF9 / RFU, SLC1A5 / Fold change vs veh, SLC1A5 / RFU, SLMO2 / Fold change vs veh, SLMO2 / RFU, ABCC4 / Fold change vs veh, ABCC4 / RFU, LOC101060439 /// RAP1B / Fold change vs veh, LOC101060439 /// RAP1B / RFU, RFX7 / Fold change vs veh, RFX7 / RFU, GTPBP10 / Fold change vs veh, GTPBP10 / RFU, CNEP1R1 / Fold change vs veh, CNEP1R1 / RFU, BIVM-ERCC5 /// ERCC5 / Fold change vs veh, BIVM-ERCC5 /// ERCC5 / RFU, ILF3 / Fold change vs veh, ILF3 / RFU 11762660_at / Fold change /veh 11762660_at / RFU VCAN (11757783_s_at) / Fold change /veh VCAN (11757783_s_at) / RFU DDX43 (11728927_at) / Fold change /veh DDX43 (11728927_at) / RFU KRT8 (11758188_x_at) / Fold change /veh KRT8 (11758188_x_at) / RFU NKD1 (11759106_at) / Fold change /veh NKD1 (11759106_at) / RFU SRD5A1 (11742802_a_at) / Fold change /veh SRD5A1 (11742802_a_at) / RFU TPSAB1 /// TPSB2 (11721975_s_at) / Fold change /veh TPSAB1 /// TPSB2 (11721975_s_at) / RFU GSTM3 (11746129_a_at) / Fold change /veh GSTM3 (11746129_a_at) / RFU IL23R (11737362_x_at) / Fold change /veh IL23R (11737362_x_at) / RFU TMEM51 (11727254_a_at) / Fold change /veh TMEM51 (11727254_a_at) / RFU PIWIL2 (11732686_x_at) / Fold change /veh PIWIL2 (11732686_x_at) / RFU ORM1 (11744905_x_at) / Fold change /veh ORM1 (11744905_x_at) / RFU CCDC152 (11743942_at) / Fold change /veh CCDC152 (11743942_at) / RFU ECM1 (11717891_a_at) / Fold change /veh ECM1 (11717891_a_at) / RFU IL23R (11748794_a_at) / Fold change /veh IL23R (11748794_a_at) / RFU TNFAIP8L3 (11732012_x_at) / Fold change /veh TNFAIP8L3 (11732012_x_at) / RFU MBOAT4 (11741988_at) / Fold change /veh MBOAT4 (11741988_at) / RFU 11764193_at / Fold change /veh 11764193_at / RFU TMEM53 (11763286_at) / Fold change /veh TMEM53 (11763286_at) / RFU MAGEB2 (11727129_at) / Fold change /veh MAGEB2 (11727129_at) / RFU TMEM200A (11744735_a_at) / Fold change /veh TMEM200A (11744735_a_at) / RFU CCDC152 (11751479_a_at) / Fold change /veh CCDC152 (11751479_a_at) / RFU FAM211A (11726209_a_at) / Fold change /veh FAM211A (11726209_a_at) / RFU RGS16 (11746705_a_at) / Fold change /veh RGS16 (11746705_a_at) / RFU VCAN (11755009_s_at) / Fold change /veh VCAN (11755009_s_at) / RFU RHOB (11743442_s_at) / Fold change /veh RHOB (11743442_s_at) / RFU RGS16 (11720943_a_at) / Fold change /veh RGS16 (11720943_a_at) / RFU RGS16 (11720944_at) / Fold change /veh RGS16 (11720944_at) / RFU, VPS4B / Fold change vs veh, VPS4B / RFU, CREB1 / Fold change vs veh, CREB1 / RFU, DNAJC13 / Fold change vs veh, DNAJC13 / RFU, GNAQ / Fold change vs veh, GNAQ / RFU, CDK5R1 / Fold change vs veh, CDK5R1 / RFU, ZRANB3 / Fold change vs veh, ZRANB3 / RFU, CUL4A / Fold change vs veh, CUL4A / RFU, CCNY / Fold change vs veh, CCNY / RFU, UFL1 / Fold change vs veh, UFL1 / RFU, COG3 / Fold change vs veh, COG3 / RFU, DIAPH2 / Fold change vs veh, DIAPH2 / RFU, SKA2 / Fold change vs veh, SKA2 / RFU, AFF3 / Fold change vs veh, AFF3 / RFU, LMF1 / Fold change vs veh, LMF1 / RFU, IPO11 / Fold change vs veh, IPO11 / RFU, DFFB / Fold change vs veh, DFFB / RFU, FOXP1 / Fold change vs veh, FOXP1 / RFU, CARD8 / Fold change vs veh, CARD8 / RFU, STRN3 / Fold change vs veh, STRN3 / RFU, ADK / Fold change vs veh, ADK / RFU, RASSF2 / Fold change vs veh, RASSF2 / RFU, WIPF1 / Fold change vs veh, WIPF1 / RFU, LARP1B / Fold change vs veh, LARP1B / RFU, RASA1 / Fold change vs veh, RASA1 / RFU, RB1 / Fold change vs veh, RB1 / RFU, PPFIA1 / Fold change vs veh, PPFIA1 / RFU, MAT2A / Fold change vs veh, MAT2A / RFU, CCT5 / Fold change vs veh, CCT5 / RFU, WDR92 / Fold change vs veh, WDR92 / RFU, CUX1 / Fold change vs veh, CUX1 / RFU, TTC7A / Fold change vs veh, TTC7A / RFU, TMEM135 / Fold change vs veh, TMEM135 / RFU, DEPTOR / Fold change vs veh, DEPTOR / RFU, CPM / Fold change vs veh, CPM / RFU, DNAJB6 / Fold change vs veh, DNAJB6 / RFU, CACNA2D3 / Fold change vs veh, CACNA2D3 / RFU, DTX4 / Fold change vs veh, DTX4 / RFU, TFCP2 / Fold change vs veh, TFCP2 / RFU, GMCL1 /// GMCL1P1 / Fold change vs veh, GMCL1 /// GMCL1P1 / RFU, AEBP2 / Fold change vs veh, AEBP2 / RFU, SNHG1 /// SNORD22 /// SNORD25 /// SNORD26 /// SNORD27 /// SNORD28 /// SNORD29 /// SNORD31 / Fold change vs veh, SNHG1 /// SNORD22 /// SNORD25 /// SNORD26 /// SNORD27 /// SNORD28 /// SNORD29 /// SNORD31 / Fold change (Aza/veh), C12orf56 (ProbeSet 11735607_a_at) / Fold change (ACY-1035/veh), C12orf56 (ProbeSet 11735607_a_at) / Fold change (Aza/veh), FGFR1OP (ProbeSet 11751329_s_at) / Fold change (ACY-1035/veh), FGFR1OP (ProbeSet 11751329_s_at) / Fold change (Aza/veh), VPS36 (ProbeSet 11739960_a_at) / Fold change (ACY-1035/veh), VPS36 (ProbeSet 11739960_a_at) / RFU SYPL1 (11715823_x_at) / Fold change /veh SYPL1 (11715823_x_at) / RFU IGFBP7 (11715501_s_at) / Fold change /veh IGFBP7 (11715501_s_at) / RFU REEP3 (11722064_at) / Fold change /veh REEP3 (11722064_at) / RFU IGLL1 (11728026_x_at) / Fold change /veh IGLL1 (11728026_x_at): dose or concentration left out as unconfirmed
Details: ProbeSet 11732433_s_at; LIST B

Nc1ncn([C@@H]2O[C@H](CO)[C@@H](O)[C@H]2O)c(=O)n1 [azacitidine]
Fold change vs veh, GK: 0.93
